From publication PMC3692398 (Biochemical pharmacology, 2013)
Where two headings read alike, the source gives them in different places.

How the values were obtained:
[1] = biological target: T1, hDAT (Homo sapiens, UniProt Q01959); assay: Inhibition of [125I]RTI-55 binding, HEK-hDAT membranes
[2] = biological target: T2, hNET (Homo sapiens, UniProt P23975); assay: biochemical; type: binding
[3] = biological target: T1, hDAT; assay: Inhibition of [3H]DA uptake, intact HEK-hDAT cells; type: cell-based
[4] = biological target: T3, hSERT (Homo sapiens, UniProt P31645); assay: Inhibition of [3H]5-HT uptake, intact HEK-hSERT cells; type: cell-based
[5] = biological target: T2, hNET; assay: cell-based; type: cell-based
[6] = biological target: T1, hDAT; assay: Superfusion release of preloaded [3H]DA from HEK-hDAT cells; type: cell-based
[7] = biological target: T3, hSERT; assay: Superfusion release of preloaded [3H]5-HT from HEK-hSERT cells; type: cell-based
[8] = biological target: T2, hNET; assay: Superfusion release of preloaded [3H]NE from HEK-hNET cells; type: cell-based; conditions: for % maximum release ± sem, hNET [3H]NE: relative to maximal AUC induced by METH (0.3 or 1 µM)
[9] = biological target: T4, hVMAT2 (Homo sapiens, UniProt Q05940); assay: Inhibition of [3H]DHTB binding, HEK-hVMAT2 membranes
[10] = biological target: T4, hVMAT2; assay: Inhibition of [3H]5-HT uptake, HEK-hVMAT2 membrane preparation; type: biochemical
[11] = biological target: T4, hVMAT2; assay: Superfusion release of preloaded [3H]NE from HEK-hVMAT2 cells; type: cell-based
[12] = biological target: T5, h5-HT1A receptor (Homo sapiens, UniProt P08908); assay: [3H]8-OH-DPAT binding, HEK-h5-HT1A
T5 sequence (P08908 1-422): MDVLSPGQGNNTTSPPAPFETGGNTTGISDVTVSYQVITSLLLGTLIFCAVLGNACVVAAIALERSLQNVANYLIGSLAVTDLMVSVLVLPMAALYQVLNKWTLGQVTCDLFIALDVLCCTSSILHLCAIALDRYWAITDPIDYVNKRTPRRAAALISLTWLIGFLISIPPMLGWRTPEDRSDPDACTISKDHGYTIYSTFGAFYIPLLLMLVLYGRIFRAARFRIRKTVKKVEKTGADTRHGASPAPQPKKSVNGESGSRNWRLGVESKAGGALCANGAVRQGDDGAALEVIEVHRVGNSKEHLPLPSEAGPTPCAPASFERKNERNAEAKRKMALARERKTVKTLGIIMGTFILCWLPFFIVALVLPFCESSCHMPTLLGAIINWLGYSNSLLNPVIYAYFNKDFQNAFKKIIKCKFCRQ

[13] = biological target: T6, h5-HT2A receptor (Homo sapiens, UniProt P28223); assay: [125I]DOI binding, HEK-h5-HT2A; conditions: read-out: Inhibition of radioligand binding Ki ± sem, h5-HT2A [125I]DOI
[14] = biological target: T7, h5-HT2C receptor (Homo sapiens, UniProt P28335); assay: biochemical; type: binding
T7 sequence (P28335 33-458): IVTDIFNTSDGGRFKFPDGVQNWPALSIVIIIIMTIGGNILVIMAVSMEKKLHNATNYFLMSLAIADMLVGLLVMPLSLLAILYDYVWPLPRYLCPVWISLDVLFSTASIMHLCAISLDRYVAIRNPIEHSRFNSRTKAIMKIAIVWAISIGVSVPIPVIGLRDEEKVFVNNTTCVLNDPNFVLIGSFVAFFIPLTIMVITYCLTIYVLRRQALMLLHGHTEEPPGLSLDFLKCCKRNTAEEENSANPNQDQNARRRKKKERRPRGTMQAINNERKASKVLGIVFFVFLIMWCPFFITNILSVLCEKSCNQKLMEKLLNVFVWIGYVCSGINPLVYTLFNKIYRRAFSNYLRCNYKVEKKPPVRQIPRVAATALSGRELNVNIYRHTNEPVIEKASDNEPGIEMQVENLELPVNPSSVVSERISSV

[15] = biological target: T5, h5-HT1A receptor; assay: Stimulation of [35S]GTPγS binding, HEK-h5-HT1A membranes; type: biochemical
[16] = biological target: T6, h5-HT2A receptor; assay: Inhibition of 5-HT-stimulated IP-1 formation; type: cell-based; conditions: 100 nM 5-HT; for h5-HT2A Inhibition of 5-HT-stimulated IP-1 formation % maximum inhibition ± sem: normalized to maximal inhibition by ketanserin (10 µM)
[17] = biological target: T7, h5-HT2C receptor; assay: Inhibition of 5-HT-stimulated IP-1 formation; type: cell-based; conditions: for h5-HT2C Inhibition of 5-HT-stimulated IP-1 formation % maximum inhibition ± sem: 100 nM 5-HT, normalized to maximal inhibition by SB242084 (1 µM)
[18] = biological target: hSigma1 receptor (Homo sapiens, UniProt Q99720); assay: [3H]; type: binding
[19] = blood from heart, periphery, and femoral veins; postmortem cases; ref [32];[33];[34]; cited from earlier work
[20] = biological target: T3, hSERT; assay: Inhibition of [125I]RTI-55 binding, HEK-hSERT membranes
[21] = biological target: human DA D1 receptor (Homo sapiens, UniProt P21728); assay: [3H]SCH23390 binding, LhD1 cells; conditions: test drugs up to the maximal concentration tested (10 µM)
[22] = biological target: human DA D2 receptor (Homo sapiens, UniProt P14416); type: binding
[23] = concentrations ranging from 1 nM to 100 µM

T6 sequence (P28223 whole entry): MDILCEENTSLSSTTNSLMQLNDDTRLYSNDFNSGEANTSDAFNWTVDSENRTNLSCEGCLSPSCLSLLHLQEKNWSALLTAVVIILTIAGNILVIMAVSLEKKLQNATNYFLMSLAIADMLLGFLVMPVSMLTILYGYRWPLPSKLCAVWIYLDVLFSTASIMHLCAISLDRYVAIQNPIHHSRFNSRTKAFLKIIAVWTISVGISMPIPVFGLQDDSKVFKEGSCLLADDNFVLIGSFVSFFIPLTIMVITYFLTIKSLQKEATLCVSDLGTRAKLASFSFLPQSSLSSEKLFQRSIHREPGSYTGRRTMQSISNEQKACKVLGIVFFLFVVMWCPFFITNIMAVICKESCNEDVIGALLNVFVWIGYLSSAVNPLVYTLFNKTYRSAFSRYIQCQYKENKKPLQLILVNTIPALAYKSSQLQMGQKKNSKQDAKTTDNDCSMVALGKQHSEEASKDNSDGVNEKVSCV
T2 sequence (P23975 whole entry): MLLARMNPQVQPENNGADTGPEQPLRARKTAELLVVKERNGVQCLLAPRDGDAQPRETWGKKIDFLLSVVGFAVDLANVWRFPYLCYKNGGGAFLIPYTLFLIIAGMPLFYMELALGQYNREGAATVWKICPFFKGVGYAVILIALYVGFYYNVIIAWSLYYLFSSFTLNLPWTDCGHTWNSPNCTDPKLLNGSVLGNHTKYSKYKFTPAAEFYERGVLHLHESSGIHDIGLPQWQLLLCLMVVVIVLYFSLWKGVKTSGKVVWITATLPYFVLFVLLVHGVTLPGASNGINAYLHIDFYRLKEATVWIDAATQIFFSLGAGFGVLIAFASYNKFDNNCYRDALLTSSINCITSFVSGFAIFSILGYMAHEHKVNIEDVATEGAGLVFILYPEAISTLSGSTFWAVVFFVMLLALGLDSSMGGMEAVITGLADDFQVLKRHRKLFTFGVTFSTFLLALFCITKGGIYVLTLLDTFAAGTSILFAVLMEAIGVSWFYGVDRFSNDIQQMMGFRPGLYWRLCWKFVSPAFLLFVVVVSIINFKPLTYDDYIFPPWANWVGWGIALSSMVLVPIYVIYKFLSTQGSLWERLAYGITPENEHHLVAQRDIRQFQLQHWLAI
T1 sequence (Q01959 whole entry): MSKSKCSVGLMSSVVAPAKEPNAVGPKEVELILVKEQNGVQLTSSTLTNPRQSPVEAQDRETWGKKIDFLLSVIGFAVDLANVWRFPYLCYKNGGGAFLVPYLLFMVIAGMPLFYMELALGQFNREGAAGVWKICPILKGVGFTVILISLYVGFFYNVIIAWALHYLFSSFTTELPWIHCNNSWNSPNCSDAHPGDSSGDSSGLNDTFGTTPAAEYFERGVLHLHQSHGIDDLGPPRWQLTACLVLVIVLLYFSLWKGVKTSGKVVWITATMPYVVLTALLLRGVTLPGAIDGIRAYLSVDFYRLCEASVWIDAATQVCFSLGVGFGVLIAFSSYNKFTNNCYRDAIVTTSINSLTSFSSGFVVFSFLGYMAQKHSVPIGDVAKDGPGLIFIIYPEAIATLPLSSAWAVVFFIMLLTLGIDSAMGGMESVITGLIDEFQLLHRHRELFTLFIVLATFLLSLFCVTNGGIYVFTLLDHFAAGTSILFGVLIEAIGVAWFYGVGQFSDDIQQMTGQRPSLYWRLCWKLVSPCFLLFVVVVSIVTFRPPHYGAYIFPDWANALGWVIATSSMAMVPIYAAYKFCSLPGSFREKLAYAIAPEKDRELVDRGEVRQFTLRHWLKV
T3 sequence (P31645 whole entry): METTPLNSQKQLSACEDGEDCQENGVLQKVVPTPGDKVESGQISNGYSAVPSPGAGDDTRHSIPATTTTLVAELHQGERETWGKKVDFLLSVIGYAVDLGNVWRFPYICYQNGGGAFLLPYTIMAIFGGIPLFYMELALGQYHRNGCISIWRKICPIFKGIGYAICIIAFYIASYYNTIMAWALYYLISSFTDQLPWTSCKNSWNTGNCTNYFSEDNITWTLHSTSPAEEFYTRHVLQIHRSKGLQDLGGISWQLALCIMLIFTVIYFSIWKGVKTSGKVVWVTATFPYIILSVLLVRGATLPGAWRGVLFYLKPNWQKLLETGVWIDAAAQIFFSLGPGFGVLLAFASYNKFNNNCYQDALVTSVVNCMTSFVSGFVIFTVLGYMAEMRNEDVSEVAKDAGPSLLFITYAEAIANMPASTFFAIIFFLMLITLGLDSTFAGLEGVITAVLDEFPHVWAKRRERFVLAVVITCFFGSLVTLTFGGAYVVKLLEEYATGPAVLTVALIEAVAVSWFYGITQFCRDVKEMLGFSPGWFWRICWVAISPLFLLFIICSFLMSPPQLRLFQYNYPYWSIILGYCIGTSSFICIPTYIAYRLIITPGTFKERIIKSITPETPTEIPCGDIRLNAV
T4 sequence (Q05940 whole entry): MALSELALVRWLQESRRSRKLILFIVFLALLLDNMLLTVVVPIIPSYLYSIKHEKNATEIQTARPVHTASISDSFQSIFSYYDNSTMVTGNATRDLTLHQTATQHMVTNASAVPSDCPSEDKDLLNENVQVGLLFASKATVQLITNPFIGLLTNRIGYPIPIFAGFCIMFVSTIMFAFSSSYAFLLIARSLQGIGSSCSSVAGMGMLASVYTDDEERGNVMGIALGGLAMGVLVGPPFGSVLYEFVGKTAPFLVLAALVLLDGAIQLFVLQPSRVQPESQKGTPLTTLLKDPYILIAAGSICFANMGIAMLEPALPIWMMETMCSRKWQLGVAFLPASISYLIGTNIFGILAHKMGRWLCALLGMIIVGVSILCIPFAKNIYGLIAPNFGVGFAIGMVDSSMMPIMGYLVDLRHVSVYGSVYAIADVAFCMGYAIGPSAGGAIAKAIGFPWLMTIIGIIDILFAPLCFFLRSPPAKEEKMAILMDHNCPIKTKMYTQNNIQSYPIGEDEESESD
Sequence of hSigma1 receptor (Q99720 whole entry): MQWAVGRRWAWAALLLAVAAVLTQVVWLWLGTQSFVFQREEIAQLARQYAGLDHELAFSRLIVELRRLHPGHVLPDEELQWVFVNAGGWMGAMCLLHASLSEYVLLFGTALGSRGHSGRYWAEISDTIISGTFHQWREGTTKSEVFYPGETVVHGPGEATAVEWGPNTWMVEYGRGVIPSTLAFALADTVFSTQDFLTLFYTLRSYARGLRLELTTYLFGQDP
Sequence of human DA D1 receptor (P21728 whole entry): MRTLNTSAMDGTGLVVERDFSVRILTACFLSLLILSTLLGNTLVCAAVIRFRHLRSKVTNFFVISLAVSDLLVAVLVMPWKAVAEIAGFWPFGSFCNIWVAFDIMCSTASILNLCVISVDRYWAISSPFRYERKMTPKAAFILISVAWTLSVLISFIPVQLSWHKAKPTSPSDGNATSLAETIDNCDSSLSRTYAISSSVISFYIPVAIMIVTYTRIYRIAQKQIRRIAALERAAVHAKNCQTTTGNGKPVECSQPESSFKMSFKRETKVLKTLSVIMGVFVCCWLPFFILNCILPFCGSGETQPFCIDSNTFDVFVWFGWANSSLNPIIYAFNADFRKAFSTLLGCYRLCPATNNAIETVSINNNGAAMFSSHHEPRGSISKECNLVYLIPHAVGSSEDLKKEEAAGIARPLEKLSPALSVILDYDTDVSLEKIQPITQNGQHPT
Sequence of human DA D2 receptor (P14416 whole entry): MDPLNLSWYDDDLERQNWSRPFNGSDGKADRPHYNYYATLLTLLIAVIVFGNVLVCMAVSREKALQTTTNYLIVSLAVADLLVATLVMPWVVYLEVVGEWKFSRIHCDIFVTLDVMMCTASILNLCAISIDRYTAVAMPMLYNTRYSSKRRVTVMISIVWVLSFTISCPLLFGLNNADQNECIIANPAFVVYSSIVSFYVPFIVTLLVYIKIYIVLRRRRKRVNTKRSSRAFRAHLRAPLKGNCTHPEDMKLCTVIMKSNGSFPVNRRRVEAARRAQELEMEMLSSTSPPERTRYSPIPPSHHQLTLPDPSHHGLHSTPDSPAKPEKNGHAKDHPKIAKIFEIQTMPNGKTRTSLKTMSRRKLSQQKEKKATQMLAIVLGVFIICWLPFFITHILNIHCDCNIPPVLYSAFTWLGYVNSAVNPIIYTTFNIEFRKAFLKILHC

Compound: CCCC(C(=O)c1ccc2c(c1)OCO2)N1CCCC1 (stereo not drawn) [MDPV, 3,4-methylenedioxypyrovalerone]
- Ki ([1]; read-out: Inhibition of [125I]RTI-55 binding Ki ± sem, hDAT, HEK-hDAT membranes): 0.0194 ± 0.0032 µM
- Ki ([2]; read-out: Inhibition of [125I]RTI-55 binding Ki ± sem, hNET, HEK-hNET membranes): 0.107 ± 0.034 µM
- ratio of binding Ki to uptake IC50, hDAT ([3]; [125I]RTI-55 Ki / [3H]DA uptake IC50): less than six
- fold less potent at other target proteins than at biogenic amine transporters ([3]; other target proteins vs biogenic amine transporters): 60–350 fold
- IC50 ([3]; read-out: Inhibition of [3H]neurotransmitter uptake IC50 ± sem, hDAT [3H]DA, 20 nM [3H]DA, intact cells): 0.0126 ± 0.0024 µM
- ratio of binding Ki to uptake IC50, hSERT ([4]; [125I]RTI-55 Ki / [3H]5-HT uptake IC50): less than six
- IC50 ([4]; read-out: Inhibition of [3H]neurotransmitter uptake IC50 ± sem, hSERT [3H]5-HT, 20 nM [3H]5-HT, intact cells): 1.38 µM
- ratio of binding Ki to uptake IC50, hNET ([5]; [125I]RTI-55 Ki / [3H]NE uptake IC50): less than six
- IC50 ([5]; read-out: Inhibition of [3H]neurotransmitter uptake IC50 ± sem, hNET [3H]NE, 20 nM [3H]NE, intact cells): 0.0188 ± 0.0021 µM
- % maximum release ± sem, hDAT [3H]DA [6]: 4.8 ± 5.3%
- releasing efficacy, hDAT [3H]DA [6, 23]: minimal releasing efficacy
- EC50 ([6]; read-out: Drug-induced release of [3H]neurotransmitter EC50 ± sem, hDAT [3H]DA, superfusion, AUC): > 100 µM
- releasing efficacy, hSERT [3H]5-HT [7, 23]: minimal releasing efficacy
- EC50 ([7]; read-out: Drug-induced release of [3H]neurotransmitter EC50 ± sem, hSERT [3H]5-HT, superfusion, AUC): > 100 µM
- % maximum release ± sem, hSERT [3H]5-HT ([7]; relative to maximal AUC induced by PCA (10 µM)): 6.9 ± 2.1%
- releasing efficacy, hNET [3H]NE ([8]; concentrations ranging from 10 nM to 100 µM): minimal releasing efficacy
- EC50 ([8]; read-out: Drug-induced release of [3H]neurotransmitter EC50 ± sem, hNET [3H]NE, superfusion, AUC): > 100 µM
- % maximum release ± sem, hNET [3H]NE [8]: 18 ± 15%
- Ki ([9]; read-out: Inhibition of [3H]DHTB binding Ki ± sem, hVMAT2): 990 ± 270 µM
- IC50 ([10]; read-out: Inhibition of [3H]5-HT uptake IC50 ± sem, hVMAT2, 40 nM [3H]5-HT, 2 mM MgATP): > 100 µM
- Release of [3H]NE % maximum release ± sem or range, hVMAT2 [11]: 35.8 ± 9.6%
- EC50 ([11]; read-out: Drug-induced release of [3H]NE EC50 ± sem, hVMAT2, superfusion): 148 ± 84 µM
- Ki ([12]; read-out: Inhibition of radioligand binding Ki ± sem, h5-HT1A [3H]8OH-DPAT): 14.8 ± 3.8 µM
- Ki [13]: 207 ± 29 µM
- Ki ([14]; read-out: Inhibition of radioligand binding Ki ± sem, h5-HT2C [125I]DOI): 107 ± 30 µM
- h5-HT1A Stimulation of [35S]GTPγS binding % maximum stimulation ± sem ([15]; normalized to the maximal stimulation by 5-HT): 69.0 ± 6.7%
- EC50 ([15]; read-out: h5-HT1A Stimulation of [35S]GTPγS binding EC50 ± sem): 60.8 ± 8.4 µM
- h5-HT2A Inhibition of 5-HT-stimulated IP-1 formation % maximum inhibition ± sem [16]: 67.7 ± 5.4%
- IC50 ([16]; read-out: h5-HT2A Inhibition of 5-HT-stimulated IP-1 formation IC50 ± sem): 270 ± 86 µM
- h5-HT2C Inhibition of 5-HT-stimulated IP-1 formation % maximum inhibition ± sem [17]: 24.5 ± 8.4%
- Ki ([18]; read-out: Inhibition of [3H]pentazocine binding Ki ± sem, hSigma1): 4.4 ± 1.7 µM
- postmortem blood concentration [19]: 0.06 to 3.3 mg/L
- postmortem blood concentration (molar) [19]: 0.25 to 14 µM

Compound: OC1(c2ccc(Cl)cc2)c2ccccc2C2=NCCN21 (stereo not drawn) [Mazindol, reference compound]
- Ki [20]: 0.026 ± 0.012 µM
- Ki [2]: 0.0054 ± 0.0016 µM
- IC50 [4]: 0.0307 ± 0.0055 µM
- IC50 [5]: 0.00185 ± 0.00049 µM

Compound: CNC(C)C(=O)c1ccc(C)cc1 (stereo not drawn) [Mephedrone, 4-methyl-N-methylcathinone]
- Ki [1]: 4.8 ± 0.75 µM
- Ki [20]: 21 ± 4.8 µM
- Ki [2]: 11.8 ± 4 µM
- IC50 [3]: 0.098 ± 0.027 µM
- IC50 [4]: 0.51 ± 0.15 µM
- IC50 [5]: 0.0536 ± 0.0087 µM
- % maximum release ± sem, hDAT [3H]DA [6]: 68 ± 11%
- EC50 [6]: 1.19 ± 0.34 µM
- time of peak/maximal [3H]DA release after addition of drug ([6]; 4-FMC 10 µM to 300 µM, mephedrone 30 µM, methylone 100 µM): 8 min
- % maximum release ± sem, hSERT [3H]5-HT [7]: 53 ± 13%
- EC50 [7]: 11.9 ± 4.9 µM
- time of peak [3H]5-HT release after addition of drug [7]: about 6 min
- EC50 [8]: 0.41 ± 0.13 µM
- time of peak [3H]NE release after addition of drug [8]: 8 to 16 min
- % maximum release ± sem, hNET [3H]NE [8]: 152 ± 32%
- Ki [9]: > 1000 µM
- IC50 [10]: 116 ± 8.8 µM
- EC50 [11]: 66 ± 23 µM
- Release of [3H]NE % maximum release ± sem or range, hVMAT2 [11]: 33.1 ± 1.9%
- Ki [12]: > 91 µM
- Ki [14]: 9.1 ± 2.1 µM
- EC50 [15]: 126 ± 29 µM
- Emax ([15]; read-out: h5-HT1A Stimulation of [35S]GTPγS binding % maximum stimulation ± sem): 44%
- h5-HT2A Inhibition of 5-HT-stimulated IP-1 formation % maximum inhibition ± sem [16]: 98.7 ± 1.3%
- IC50 [17]: > 440 µM
- h5-HT2C Inhibition of 5-HT-stimulated IP-1 formation % maximum inhibition ± sem [17]: 66.3 ± 8.4%
- Ki ([18]; Inhibition of [3H]pentazocine binding Ki ± sem, hSigma1): 7.8 ± 2 µM
- postmortem blood concentration [19]: 0.06 to 3.3 mg/L
- postmortem blood concentration (molar) [19]: 0.25 to 14 µM

Compound: CN1CCc2cc(Cl)c(O)cc2[C@@H](c2ccccc2)C1 [SCH23390]
- affinity for the [3H]SCH23390 binding site, DA D1 receptor [21]: high affinity

Compound: Oc1cc2c(cc1O)C(c1ccccc1)CNCC2 (stereo not drawn) [SKF38393]
- affinity for the [3H]SCH23390 binding site, DA D1 receptor [21]: high affinity

Compound: CC(C)(C)[C@]1(O)CCN2C[C@H]3c4ccccc4CCc4cccc(c43)[C@@H]2C1 [butaclamol]
- affinity for the [3H]YM-09151-2 binding site, DA D2 receptor [22]: subnanomolar
